Data taken from patent US8058344B2, “Glycodendrimers having biological activity” (Imperial Innovations Ltd, priority 2002, dated 2011).

Experiments:
[1] = system: freshly isolated human PBMN cells and human MDM; test: Toxicity against primary human cells in vitro, MTT assay; type: cell-based; conditions: up to the maximum concentration of 1,000 μg/ml
Procedure: The dendrimers and the dendrimer conjugates were incubated with freshly isolated, human peripheral blood mononuclear (PBMN) cells and with freshly isolated human monocyte-derived-macrophages QDM).
Human PBMN cells and human MDMs were separated from buffy coat residues within 24 h of collection by density gradient centrifugation. […] The monocytes were allowed to differentiate to MDMs by a further 3 days of adherence. The compounds were then added to PBMN cells or to MDMs (1×10^6 cells/ml) and incubated for 67 h. Cell viability was assessed using the MTT assay at 72 h.

[2] = system: human T-cell line (Sup-T1); test: Toxicity in cell lines, MTT assay; type: cell-based; conditions: 67 h, ± SEM (n = 16)
Procedure: (§1) The compounds synthesised were evaluated for their toxicity in the following cell lines:—the human T-cell line (Sup-T1), a human T-cell line transformed with HTLV-1 (C8166), the human monocytic cell line (U937), the brain cell line transfected with human CD4 and the human chemokine receptor CCR5 (U87-CD4-CCR5), and the murine melanoma cell line (B16P10).
(§2) Dendrimers, glucosamine, glucosamine 6-sulfate and dendrimer conjugates were incubated with each cell line. […] The conjugates or controls were incubated for 67 h with the cells at concentrations ranging from […]. An MTT assay was then used to determine cell viability and the results were expressed as a percentage of that for cells grown in the absence of any compound.

[3] = system: murine melanoma cell line (B16F10); test: Toxicity in cell lines, MTT assay; type: cell-based; conditions: Mus musculus, B16-F10, 67 h, ± SEM (n = 16)
Procedure: as §1, §2

[4] = system: human monocytic cell line (U937); test: Toxicity in cell lines, MTT assay; type: cell-based; conditions: U-937, 67 h, ± SEM (n = 16)
Procedure: as §1, §2

[5] = system: human T-cell line transformed with HTLV-1 (C8166); test: Toxicity in cell lines, MTT assay; type: cell-based; conditions: 67 h, ± SEM (n = 16)
Procedure: as §1, §2

[6] = system: brain cell line transfected with human CD4 and the human chemokine receptor CCR5 (U87-CD4-CCR5); test: Toxicity in cell lines, MTT assay; type: cell-based; conditions: 67 h, ± SEM (n = 16)
Procedure: as §1, §2

[7] = system: human umbilical vein endothelial cells; test: Endothelial microtubule formation assay on Matrigel; type: cell-based; conditions: 100 μg/ml; 18 h; scale 0-4
Procedure: The endothelial microtubule formation assay was performed by isolating human umbilical vein endothelial cells from umbilical cords within 6 h of delivery by caesarean section. The embilical vein was cannulated and 0.1% collagenase in phosphate buffered saline was introduced and incubated for 20 minutes. The endothelial cells liberated by the collagenase were obtained by washing the umbilical vein with Medium 199. The cells were washed three times with Medium 199 and then cultured in tissue culture flasks coated with fibronectin. Growth media consisted of Medium 199 with 20% foetal bovine serum, 30 μg/ml endothelial cell growth supplement, 10 IU/ml heparin, 100 IU/ml penicillin, 100 μg/1 ml streptomycin and 2 mM L-glutamine. Human umbilical vein endothelial cells were passaged at confluence after treatment with trypsin-EDTA. All cells were used at passages to 6.
Aliquots of Matrigel were dispensed into 35 mm diameter tissue culture dishes on ice and then incubated at 37° C. for 10 min to allow the gel to set. […] At various time points from 8-24 hours, the plates were examined and scored using a published scheme from 0-4, where 0=all adherent cells remain single, and 4=all adherent cells involved in tubular structures. New vessel formation was quantified blind by three different observers at 18 h. […]
Endothelial microtubule formation by HUVECs on Matrigel (×40 magnification). A visual analogue scale was used to determine the extent of tube formation and scored on a scale from 0 (all cells remain single) to 4 (all cells involved in tubular structures) as previously described (Bauer J, Margolis M, Schreiner C, Edgell C-J, Azizkhan J, Lazarowski E, & Juliano R L. (1992) In vitro model of angiogenesis using a human endothelium derived permanent cell line: contributions of induced gene expression, G-proteins and integrins. J. Cellular Physiology 153: 437-449; Liaw, L & Schwartz S M. (1993) Microtubule disruption stimulates DNA synthesis in bovine endothelial cells and potentiates cellular response to basic fibroblast growth factor. […]

[8] = system: Sup-T1, C8166, U937, U87-CD4-CCR5 and B16F10 cells; test: Toxicity in cell lines, MTT assay, stated over all cell lines; type: cell-based, human; murine; conditions: concentrations up to 1,000 μg/ml
Procedure: as §1, §2

| SMILES | toxicity to PBMN cells or to MDMs [1] | IC50 [2] | IC50 [3] | IC50 [4] | IC50 [5] | IC50 [6] | Tube formation score (n = 4) [7] | toxicity [8] |
| --- | --- | --- | --- | --- | --- | --- | --- | --- |
| N[C@H]1C(O)O[C@H](COS(=O)(=O)O)[C@@H](O)[C@@H]1O (stereo partly shown) [glucosamine 6-sulfate] | not toxic | > 1000 mg/L | > 1000 mg/L | > 1000 mg/L | > 1000 mg/L | > 1000 mg/L | 4 | no toxicity |
| N[C@H]1C(O)O[C@H](CO)[C@@H](O)[C@@H]1O (stereo partly shown) [glucosamine] |  | > 1000 mg/L | > 1000 mg/L | > 1000 mg/L | > 1000 mg/L | > 1000 mg/L | 4 | no toxicity |
| N[C@H]1C(O)O[C@H](COS(=O)(=O)O)[C@@H](O)[C@@H]1OS(=O)(=O)O (stereo partly shown) [glucosamine 3,6-disulfate] |  |  |  |  |  |  | 4 |  |
